Reference: patent publication US8877748B2, “Heterocyclic fused anthraquinone derivatives, manufacturing method and pharmaceutical composition using thereof” (National Defense Medical Center, priority 2012, dated 2014)

Columns and labels:
[1] = tested on: PC-3 prostate cancer cell line; test: SRB assay cell viability, PC-3 prostate cancer cell line; type: cell-based, human; conditions: PC-3 prostate cancer cell line, Table II prints no unit, μM printed, read-out: SRB assay: 50% inhibition of cancer cell proliferation of sample concentration (IC50) of PC-3 prostate cancer cell line
CCRF-CEM = test: NCI screening platform one-dose single concentration screening, leukemia CCRF-CEM; type: cell-based, human; conditions: 10 μM
HL-60, TB = test: NCI one-dose screening, leukemia HL-60, TB; type: cell-based, human; conditions: 10 μM
MOLT-4 = test: NCI one-dose screening, leukemia MOLT-4; type: cell-based, human; conditions: 10 μM
SR = test: NCI one-dose screening, leukemia SR; type: cell-based, human; conditions: 10 μM
PRMI-8226 cell line = test: NCI one-dose screening, leukemia PRMI-8226; type: cell-based, human; conditions: 10 μM
K562cell line = test: NCI one-dose screening, leukemia K562; type: cell-based, human; conditions: 10 μM
HOP-62 = test: NCI one-dose screening, non-small cell lung cancer HOP-62; type: cell-based, human; conditions: 10 μM
HOP-92 = test: NCI one-dose screening, non-small cell lung cancer HOP-92; type: cell-based, human; conditions: 10 μM
NCI-H23 = test: NCI one-dose screening, non-small cell lung cancer NCI-H23; type: cell-based, human; conditions: 10 μM
NCI-H322M = test: NCI one-dose screening, non-small cell lung cancer NCI-H322M; type: cell-based, human; conditions: 10 μM; Non-small cell lung cancer
NCI-H460 = test: NCI one-dose screening, non-small cell lung cancer NCI-H460; type: cell-based, human; conditions: 10 μM
NCI-H522 = test: NCI one-dose screening, non-small cell lung cancer NCI-H522; type: cell-based, human; conditions: 10 μM
A549/ATCC = test: NCI one-dose screening, non-small cell lung cancer A549/ATCC; type: cell-based, human; conditions: 10 μM
COLO 205 = test: NCI one-dose screening, colon cancer COLO 205; type: cell-based, human; conditions: 10 μM
HCC-2998 = test: NCI one-dose screening, colon cancer HCC-2998; type: cell-based, human; conditions: 10 μM
HCT-116 = test: NCI one-dose screening, colon cancer HCT-116; type: cell-based, human; conditions: 10 μM
HCT-15 = test: NCI one-dose screening, colon cancer HCT-15; type: cell-based, human; conditions: 10 μM
KM12 = test: NCI one-dose screening, colon cancer KM12; type: cell-based, human; conditions: 10 μM
HT29 = test: NCI one-dose screening, colon cancer HT29; type: cell-based, human; conditions: 10 μM
SF-268 = test: NCI one-dose screening, CNS cancer SF-268; type: cell-based, human; conditions: 10 μM
SF-295 = test: NCI one-dose screening, CNS cancer SF-295; type: cell-based, human; conditions: 10 μM
SF-539 = test: NCI one-dose screening, CNS cancer SF-539; type: cell-based, human; conditions: 10 μM
SNB-19 = test: NCI one-dose screening, CNS cancer SNB-19; type: cell-based, human; conditions: 10 μM
SNB-75 = test: NCI one-dose screening, CNS cancer SNB-75; type: cell-based, human; conditions: 10 μM
U251 = test: NCI one-dose screening, CNS cancer U251; type: cell-based, human; conditions: 10 μM
LOX IMVI = test: NCI one-dose screening, melanoma LOX IMVI; type: cell-based, human; conditions: 10 μM
MALME-3M = test: NCI one-dose screening, melanoma MALME-3M; type: cell-based, human; conditions: 10 μM
M14 = test: NCI one-dose screening, melanoma M14; type: cell-based, human; conditions: 10 μM
UACC-62 = test: NCI one-dose screening, melanoma UACC-62; type: cell-based, human; conditions: 10 μM
UACC-257 = test: NCI one-dose screening, melanoma UACC-257; type: cell-based, human; conditions: 10 μM
SK-MEL-2 = test: NCI one-dose screening, melanoma SK-MEL-2; type: cell-based, human; conditions: 10 μM
SK-MEL-28 = test: NCI one-dose screening, melanoma SK-MEL-28; type: cell-based, human; conditions: 10 μM
SK-MEL-5 = test: NCI one-dose screening, melanoma SK-MEL-5; type: cell-based, human; conditions: 10 μM
IGROV1 = test: NCI one-dose screening, ovarian cancer IGROV1; type: cell-based, human; conditions: 10 μM
OVCAR-3 = test: NCI one-dose screening, ovarian cancer OVCAR-3; type: cell-based, human; conditions: 10 μM
OVCAR-4 = test: NCI one-dose screening, ovarian cancer OVCAR-4; type: cell-based, human; conditions: 10 μM
OVCAR-5 = test: NCI one-dose screening, ovarian cancer OVCAR-5; type: cell-based, human; conditions: 10 μM
OVCAR-8 = test: NCI one-dose screening, ovarian cancer OVCAR-8; type: cell-based, human; conditions: 10 μM
SK-OV-3 = test: NCI one-dose screening, ovarian cancer SK-OV-3; type: cell-based, human; conditions: 10 μM
786-O = test: NCI one-dose screening, renal cancer 786-O; type: cell-based, human; conditions: 10 μM
CAKI-1 = test: NCI one-dose screening, renal cancer CAKI-1; type: cell-based, human; conditions: 10 μM
[2] = NCI one-dose screening, renal cancer A489; type: cell-based, human; conditions: 10 μM
ACHN = test: NCI one-dose screening, renal cancer ACHN; type: cell-based, human; conditions: 10 μM
SN12C = test: NCI one-dose screening, renal cancer SN12C; type: cell-based, human; conditions: 10 μM
TK-10 = test: NCI one-dose screening, renal cancer TK-10; type: cell-based, human; conditions: 10 μM
UO-31 = test: NCI one-dose screening, renal cancer UO-31; type: cell-based, human; conditions: 10 μM
RXF, 393 = test: NCI one-dose screening, renal cancer RXF, 393; type: cell-based, human; conditions: 10 μM
DU145 = test: NCI one-dose screening, prostate cancer DU145; type: cell-based, human; conditions: 10 μM
MCF7 = test: NCI one-dose screening, breast cancer MCF7; type: cell-based, human; conditions: 10 μM
HS 578-T = test: NCI one-dose screening, breast cancer HS 578-T; type: cell-based, human; conditions: 10 μM; Breast cancer
MDA-MB-231/ATCC = test: NCI one-dose screening, breast cancer MDA-MB-231/ATCC; type: cell-based, human; conditions: 10 μM
MDA-MB-468 = test: NCI one-dose screening, breast cancer MDA-MB-468; type: cell-based, human; conditions: 10 μM
NCl/ADR-RES = test: NCI one-dose screening, breast cancer NCl/ADR-RES; type: cell-based, human; conditions: 10 μM; listed under Ovarian cancer
T-47D = test: NCI one-dose screening, breast cancer T-47D; type: cell-based, human; conditions: 10 μM
MDA, -MB-435 = test: NCI one-dose screening, breast cancer MDA, -MB-435; type: cell-based, human; conditions: 10 μM; listed under Melanoma
human tumor cell lines = test: NCI one-dose screening, Mean / Delta / Range of growth percent over all tested cell lines; type: cell-based; conditions: 10 μM; for Growth Percent Delta: delta over all cell lines; for Growth Percent Mean: mean over all cell lines; for Growth Percent Range: range over all cell lines
PC-3 = test: NCI one-dose screening, prostate cancer PC-3; type: cell-based, human; conditions: 10 μM
BT-549 = test: NCI one-dose screening, breast cancer BT-549; type: cell-based, human; conditions: 10 μM

## O=C1c2ccccc2C(=O)c2c1ccc1nsnc21 [C1, Anthraquinone[2,1-c][1,2,5]thiadiazol-6,11-dione]
[1]
  IC50: 2.5 µM
CCRF-CEM
  Growth Percent CCRF-CEM: −30.81%
HL-60, TB
  Growth Percent HL-60(TB): −21.77%
MOLT-4
  Growth Percent MOLT-4: −40.09%
SR
  Growth Percent SR: 4.96%
PRMI-8226 cell line
  Growth Percent RPMI-8226: −27.97%
K562cell line
  Growth Percent K562: 49.61%
HOP-62
  Growth Percent HOP-62: 103.18%
HOP-92
  Growth Percent HOP-92: −100.00%
NCI-H23
  Growth Percent NCI-H23: 97.80%
NCI-H322M
  Growth Percent NCI-H322M: 16.07%
NCI-H460
  Growth Percent NCI-H460: 125.82%
NCI-H522
  Growth Percent NCI-H522: 77.41%
A549/ATCC
  Growth Percent A549/ATCC: 104.19%
COLO 205
  Growth Percent COLO 205: 111.54%
HCC-2998
  Growth Percent HCC-2998: −0.74%
HCT-116
  Growth Percent HCT-116: −50.00%
HCT-15
  Growth Percent HCT-15: 1.48%
KM12
  Growth Percent KM12: 98.60%
HT29
  Growth Percent HT29: 116.95%
SF-268
  Growth Percent SF-268: 16.29%
SF-295
  Growth Percent SF-295: 126.17%
SF-539
  Growth Percent SF-539: −47.11%
SNB-19
  Growth Percent SNB-19: 78.98%
SNB-75
  Growth Percent SNB-75: 79.03%
U251
  Growth Percent U251: −89.26%
LOX IMVI
  Growth Percent LOX IMVI: −50.63%
MALME-3M
  Growth Percent MALME-3M: −71.64%
M14
  Growth Percent M14: 74.54%
UACC-62
  Growth Percent UACC-62: −82.32%
UACC-257
  Growth Percent UACC-257: −83.07%
SK-MEL-2
  Growth Percent SK-MEL-2: −73.16%
SK-MEL-28
  Growth Percent SK-MEL-28: 15.47%
SK-MEL-5
  Growth Percent SK-MEL-5: 8.52%
IGROV1
  Growth Percent IGROV1: −88.34%
OVCAR-3
  Growth Percent OVCAR-3: −15.47%
OVCAR-4
  Growth Percent OVCAR-4: −94.43%
OVCAR-5
  Growth Percent OVCAR-5: −20.07%
OVCAR-8
  Growth Percent OVCAR-8: −10.07%
SK-OV-3
  Growth Percent SK-OV-3: 100.70%
786-O
  Growth Percent 786-0: −25.98%
CAKI-1
  Growth Percent CAKI-1: 1.97%
[2]
  Growth Percent A498: 130.09%
ACHN
  Growth Percent ACHN: −94.31%
SN12C
  Growth Percent SN12C: −73.27%
TK-10
  Growth Percent TK-10: 96.99%
UO-31
  Growth Percent UO-31: −79.30%
RXF, 393
  Growth Percent RXF 393: 20.11%
DU145
  Growth Percent DU145: 40.76%
MCF7
  Growth Percent MCF7: −50.74%
HS 578-T
  Growth Percent HS 578T: 7.40%
MDA-MB-231/ATCC
  Growth Percent MDA-MB-231/ATCC: −17.33%
MDA-MB-468
  Growth Percent MDA-MB-468: −73.17%
NCl/ADR-RES
  Growth Percent NCI/ADR-RES: −2.53%
T-47D
  Growth Percent T-47D: −45.52%
MDA, -MB-435
  Growth Percent MDA-MB-435: −87.88%
Human tumor cell lines
  Growth Percent Delta: 102.68%
  Growth Percent Mean: 2.68%
  Growth Percent Range: 230.09%

## O=C1c2ccccc2C(=O)c2c1cc(Cl)c1nsnc21 [C2, 4-Chloro-anthraquinone[2,1-c][1,2,5] thiadiazole-6,11-dione]
[1]
  IC50: 13.5 µM
CCRF-CEM
  Growth Percent CCRF-CEM: −41.78%
HL-60, TB
  Growth Percent HL-60(TB): 1.87%
MOLT-4
  Growth Percent MOLT-4: −34.12%
SR
  Growth Percent SR: −23.86%
PRMI-8226 cell line
  Growth Percent RPMI-8226: 27.81%
K562cell line
  Growth Percent K562: 2.44%
HOP-62
  Growth Percent HOP-62: 82.19%
HOP-92
  Growth Percent HOP-92: 75.8%
NCI-H23
  Growth Percent NCI-H23: 100.39%
NCI-H322M
  Growth Percent NCI-H322M: 75.02%
NCI-H460
  Growth Percent NCI-H460: 108.2%
NCI-H522
  Growth Percent NCI-H522: 100.18%
A549/ATCC
  Growth Percent A549/ATCC: 103.21%
COLO 205
  Growth Percent COLO 205: 99.08%
HCC-2998
  Growth Percent HCC-2998: 105.67%
HCT-116
  Growth Percent HCT-116: 48.15%
HCT-15
  Growth Percent HCT-15: 96.8%
KM12
  Growth Percent KM12: 95.88%
SF-268
  Growth Percent SF-268: 37.03%
SF-295
  Growth Percent SF-295: 109.08%
SF-539
  Growth Percent SF-539: 108.52%
SNB-19
  Growth Percent SNB-19: 105.75%
SNB-75
  Growth Percent SNB-75: 85.25%
U251
  Growth Percent U251: 29.19%
LOX IMVI
  Growth Percent LOX IMVI: 10.23%
MALME-3M
  Growth Percent MALME-3M: 97.09%
M14
  Growth Percent M14: 102.73%
UACC-62
  Growth Percent UACC-62: 72.91%
UACC-257
  Growth Percent UACC-257: 76.09%
SK-MEL-2
  Growth Percent SK-MEL-2: 0.21%
SK-MEL-28
  Growth Percent SK-MEL-28: 131.75%
SK-MEL-5
  Growth Percent SK-MEL-5: 72.45%
IGROV1
  Growth Percent IGROV1: 52.47%
OVCAR-3
  Growth Percent OVCAR-3: 49.88%
OVCAR-4
  Growth Percent OVCAR-4: −75.03%
OVCAR-8
  Growth Percent OVCAR-8: −4.57%
SK-OV-3
  Growth Percent SK-OV-3: 109.05%
786-O
  Growth Percent 786-0: 102.14%
CAKI-1
  Growth Percent CAKI-1: 96.51%
[2]
  Growth Percent A498: 93.79%
SN12C
  Growth Percent SN12C: 71.92%
TK-10
  Growth Percent TK-10: 134.06%
UO-31
  Growth Percent UO-31: 80.15%
RXF, 393
  Growth Percent RXF 393: 71.92%
DU145
  Growth Percent DU145: 96.95%
PC-3
  Growth Percent PC-3: 23.54%
MCF7
  Growth Percent MCF7: 65.36%
HS 578-T
  Growth Percent HS 578T: 72.54%
MDA-MB-231/ATCC
  Growth Percent MDA-MB-231/ATCC: −23.35%
MDA-MB-468
  Growth Percent MDA-MB-468: −88.31%
BT-549
  Growth Percent BT-549: 101.5%
T-47D
  Growth Percent T-47D: −54.59%
Human tumor cell lines
  Growth Percent Delta: 143.22%
  Growth Percent Mean: 54.91%
  Growth Percent Range: 222.37%
